# Source: ChEMBL document CHEMBL1201862, “PubChem BioAssay data set” (2004)
# Structures can show the parent of a compound that is named as a salt. Active and inactive are the calls of the source.
# What was measured:
# [1] = Reduced DLD-1 viability, concentration-response, CellTiter-Glo luminescence (AID 1117352); assay type: functional
# [2] = SNU-C1 cell viability reduction, dose response, CellTiter-Glo luminescence (AID 1117323); assay type: functional, cell-based
# [3] = cytotoxicity toward HT-29 cells – cell-based, CellTiter-Glo luminescence, IC50, dose response (AID 1117330); assay type: functional
# [4] = cytotoxicity toward Colo320 cells – cell-based, CellTiter-Glo luminescence, IC50, dose response (AID 1117334); assay type: functional; conditions: COLO 320
# [5] = RKO cell viability reduction, dose response, CellTiter-Glo luminescence (AID 1117322); assay type: functional
# [6] = CellTiter-Glo luminescence survival assay, SW480 colon tumor line, concentration-response curve, half-maximal inhibitory concentration (AID 1117338); assay type: functional
# [7] = cytotoxicity toward HCT116 cells – cell-based, CellTiter-Glo luminescence, IC50, dose response (AID 1117332); assay type: functional; conditions: HCT-116
# [8] = HCT116 cell viability decrease, GSK3B pretreatment – CellTiter-Glo, IC50, dose response (AID 1117339); assay type: functional; conditions: HCT-116
# [9] = viability loss in A549 lung cells – cell-based, 24 h, CellTiter-Glo luminescence, cherry-picks, cytotoxicity control, dose response (AID 1053115); assay type: functional; conditions: A549, 24 h
# [10] = target: T1, Carboxy-terminal domain RNA polymerase II polypeptide A small phosphatase 1 (Homo sapiens, UniProt Q9GZU7); experiment: CTDSP1 inhibitors, concentration-response, biochemical, absorbance readout, ultra-high-throughput screen actives (AID 540297); assay type: functional
# T1 sequence (Q9GZU7 whole entry): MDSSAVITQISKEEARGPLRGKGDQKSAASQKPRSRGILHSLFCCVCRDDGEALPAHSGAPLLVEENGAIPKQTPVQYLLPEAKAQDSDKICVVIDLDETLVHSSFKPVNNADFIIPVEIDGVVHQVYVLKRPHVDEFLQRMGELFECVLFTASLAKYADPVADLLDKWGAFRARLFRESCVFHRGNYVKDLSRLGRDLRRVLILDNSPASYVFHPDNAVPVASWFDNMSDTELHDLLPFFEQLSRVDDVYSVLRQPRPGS
# [11] = target: DNA dC->dU-editing enzyme APOBEC-3G (Homo sapiens, UniProt Q9HC16); assay type: functional;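 note: Dose-response counterscreen measuring inhibition of APOBEC3G DNA deaminase activity, run while confirming APOBEC3A inhibitors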
# Chain of DNA dC->dU-editing enzyme APOBEC-3G (Q9HC16 whole entry): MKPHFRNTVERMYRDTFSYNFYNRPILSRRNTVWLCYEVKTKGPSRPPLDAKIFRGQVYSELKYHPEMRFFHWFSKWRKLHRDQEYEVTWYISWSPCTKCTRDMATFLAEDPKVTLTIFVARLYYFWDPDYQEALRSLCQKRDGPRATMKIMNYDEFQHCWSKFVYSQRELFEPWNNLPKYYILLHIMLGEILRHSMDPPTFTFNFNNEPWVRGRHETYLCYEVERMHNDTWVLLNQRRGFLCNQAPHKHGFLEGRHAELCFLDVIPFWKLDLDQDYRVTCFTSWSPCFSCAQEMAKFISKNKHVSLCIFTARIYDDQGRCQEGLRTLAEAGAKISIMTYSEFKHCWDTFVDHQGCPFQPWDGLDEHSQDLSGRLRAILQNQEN
# Protein Tat = Protein Tat (Human immunodeficiency virus type 1 group M subtype B (isolate HXB2)(HIV-1), UniProt P04608); assay type: functional;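 note: tat binding to TAR RNA read out by fluorescence polarization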
# Chain of Protein Tat (P04608 whole entry): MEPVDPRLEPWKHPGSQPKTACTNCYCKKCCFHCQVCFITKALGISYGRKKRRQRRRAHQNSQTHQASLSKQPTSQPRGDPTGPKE
# [12] = target: DNA dC->dU-editing enzyme APOBEC-3A (Homo sapiens, UniProt P31941); experiment: Dose Response confirmation of small molecule APOBEC3A DNA Deaminase Inhibitors via a fluorescence-based single-stranded DNA deaminase assay. [Related pubchem assays (depositor defined):AID493011, AID493024]; assay type: functional
# Chain of DNA dC->dU-editing enzyme APOBEC-3A (P31941 whole entry): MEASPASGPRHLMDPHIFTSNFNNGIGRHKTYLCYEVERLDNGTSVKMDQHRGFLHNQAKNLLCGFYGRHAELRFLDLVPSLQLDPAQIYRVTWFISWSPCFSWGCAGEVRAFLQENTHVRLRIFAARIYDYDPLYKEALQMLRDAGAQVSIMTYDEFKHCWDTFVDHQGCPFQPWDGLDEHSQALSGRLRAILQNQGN
# [13] = glucagon-like peptide-1 release potency in STC-1, concentration-response, half-maximal inhibitory concentration in the STC-1 line (AID 1117345); assay type: functional, cell-based
# [14] = Potency on glucagon-like peptide 1 release, dose-response in NCI-H716 cell line, half maximal inhibitory concentration (AID 1117344); assay type: functional, cell-based
# [15] = viability loss in human Jurkat cells – cell-based, luminescence, cytotoxicity control for P. falciparum gametocyte viability project, dose response (AID 1117277); assay type: functional;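 note: potency reflects loss of cellular ATP meaning fewer viable cells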
# [16] = viability inhibitors of stage V gametocytes – luminescence, dose response (AID 1117278); assay type: functional, cell-based;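 note: gametocytes exposed to compound for 24 hours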
# [17] = viability loss in Vero cells – cytotoxicity control for Vif-APOBEC3G degradation inhibitor project, dose response (AID 1117358); assay type: functional; conditions: Vero
# [18] = P. falciparum Dd2 growth inhibitors, dose response, SYBR Green, cherry-picked samples (AID 1159567); assay type: functional, cell-based
# [19] = growth inhibition of PfATP4-mutant resistant parasites – NITD609-resistant line, SYBR Green, dry powder, dose response (AID 1159571); assay type: functional, cell-based;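 note: parasites synchronized at ring stage by sorbitol before testing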
# [20] = Dd2 malaria parasite growth inhibition potency – SYBR Green, dry powder samples, dose response (AID 1159566); assay type: functional, cell-based;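 note: potency for growth inhibition with lower SYBR green DNA signal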
# [21] = toxicity to human HepG2 hepatoma cells – cell-based, plate reader, dry powder samples, cytotoxicity control, dose response (AID 1159569); assay type: functional;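 note: inhibitor potency with signal falling toward the positive control level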
# [22] = toxicity to human hepatoma HepG2 cells – cell-based, cherry-picked samples, cytotoxicity control, dose response (AID 1159577); assay type: functional
# [23] = growth inhibition of yeast DHODH-expressing 3D7 parasites – SYBR Green, dry powder samples, dose response (AID 1159570); assay type: functional, cell-based;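 note: parasite growth measured after 72 hours of compound exposure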
# [24] = Late stage counterscreen for inhibitors of Trypanosoma brucei methionyl tRNA synthetase (MetRS): Luminescence-based cell-based high throughput dose response assay to identify compounds that are cytotoxic to Jurkat human T lymphocyte cells.; assay type: functional
# [25] = viability loss in THP-1 monocytes – THP-1 cells, cytotoxicity control for Vif-APOBEC3G degradation inhibitor project, dose response (AID 1117359); assay type: functional; conditions: THP-1
# [26] = NIH3T3 cell viability loss – ATP luminescence, mouse fibroblasts, counter-screen, dose response (AID 2010); assay type: functional, cell-based;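 note: cells exposed to compound for about 90 hours before reading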
# [27] = Trypanosoma cruzi growth suppression in host cells – NIH3T3 host cells, beta-gal luminescence, confirmation (AID 2044); assay type: functional, cell-based;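 note: intracellular parasites grown in NIH/3T3 mouse fibroblasts as host cells; luminescent beta-galactosidase reporter signal from transgenic T. cruzi replicating inside host cells; inhibitors lower the luminescence signal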
# [28] = Dd2 parasite growth inhibition in erythrocytes – SYBR Green, dry powder samples, set 9, dose response (AID 1159568); assay type: functional, cell-based
# [29] = Luminescence-based counterscreen assay for KLF5 inhibitors: dose response cell-based high throughput screening assay to identify cytotoxic compounds using the IEC-6 intestinal epithelial cell line. [Related pubchem assays: 1700 (Primary screen.), 1834 (Confirmation screen.), 1858 (Summary AID.), 1905 (Counterscreen.)]; assay type: functional
# [30] = target: Luciferin 4-monooxygenase (Photinus pyralis, UniProt P08659); experiment: inhibition of purified Photinus pyralis luciferase – biochemical, luminescence, dose response (AID 1891)
# Chain of Luciferin 4-monooxygenase (P08659 whole entry): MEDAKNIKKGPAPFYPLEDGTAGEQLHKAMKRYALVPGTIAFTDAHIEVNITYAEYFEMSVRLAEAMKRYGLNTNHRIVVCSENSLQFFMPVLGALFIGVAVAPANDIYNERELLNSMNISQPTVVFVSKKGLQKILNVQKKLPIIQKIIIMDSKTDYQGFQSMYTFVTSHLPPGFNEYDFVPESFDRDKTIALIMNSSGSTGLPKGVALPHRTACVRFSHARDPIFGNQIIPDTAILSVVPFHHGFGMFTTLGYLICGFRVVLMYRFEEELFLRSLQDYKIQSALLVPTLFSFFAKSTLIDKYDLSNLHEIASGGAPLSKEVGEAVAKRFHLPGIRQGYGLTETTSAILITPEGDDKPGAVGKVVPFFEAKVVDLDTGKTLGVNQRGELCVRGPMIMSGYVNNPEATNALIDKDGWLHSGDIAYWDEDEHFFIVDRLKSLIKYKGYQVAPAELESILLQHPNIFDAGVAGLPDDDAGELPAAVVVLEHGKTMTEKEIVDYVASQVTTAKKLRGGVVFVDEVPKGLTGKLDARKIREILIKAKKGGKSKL
# [31] = target: COUP transcription factor 2 (Homo sapiens, UniProt P24468); experiment: Luminescence-based cell-based high throughput dose response assay to identify inhibitors of COUP-TFII (NR2F2).; assay type: functional;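 note: HEK293 cells transiently cotransfected with COUP-TFII expression vector and reporter; luciferase reporter luminescence driven by COUP-TFII from the pX2-168 reporter plasmid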
# Chain of COUP transcription factor 2 (P24468 whole entry): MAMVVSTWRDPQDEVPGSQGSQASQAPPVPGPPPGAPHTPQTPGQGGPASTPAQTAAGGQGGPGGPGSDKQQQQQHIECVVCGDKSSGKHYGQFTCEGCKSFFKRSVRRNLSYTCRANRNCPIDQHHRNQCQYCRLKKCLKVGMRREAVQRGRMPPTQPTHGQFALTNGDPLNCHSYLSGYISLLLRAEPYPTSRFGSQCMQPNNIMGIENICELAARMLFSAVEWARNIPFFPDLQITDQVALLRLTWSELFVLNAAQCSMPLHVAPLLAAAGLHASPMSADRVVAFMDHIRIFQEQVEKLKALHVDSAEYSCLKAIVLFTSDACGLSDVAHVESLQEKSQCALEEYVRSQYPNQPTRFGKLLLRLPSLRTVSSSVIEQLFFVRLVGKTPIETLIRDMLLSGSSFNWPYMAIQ
# [32] = Luminescence Cell-Based Dose Confirmation HTS to Identify Inhibitors of Platelet Dense Granule Release. [Related pubchem assays: 1663 (Primary HTS), 1678 (Summary of Project)]; assay type: functional
# [33] = target: T2, Heat shock factor protein 1 (Mus musculus, UniProt P38532); experiment: decrease of HSF1-responsive luciferase luminescence – cell-based, NIH3T3, dose retest, confirmation (AID 2382); assay type: functional;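 note: NIH3T3 fibroblasts with HSF1-driven luciferase reporter stressed by proteasome inhibitor MG132; luminescence from HSF1-driven luciferase expression after 8 hours of MG132 stress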
# T2 sequence (P38532 whole entry): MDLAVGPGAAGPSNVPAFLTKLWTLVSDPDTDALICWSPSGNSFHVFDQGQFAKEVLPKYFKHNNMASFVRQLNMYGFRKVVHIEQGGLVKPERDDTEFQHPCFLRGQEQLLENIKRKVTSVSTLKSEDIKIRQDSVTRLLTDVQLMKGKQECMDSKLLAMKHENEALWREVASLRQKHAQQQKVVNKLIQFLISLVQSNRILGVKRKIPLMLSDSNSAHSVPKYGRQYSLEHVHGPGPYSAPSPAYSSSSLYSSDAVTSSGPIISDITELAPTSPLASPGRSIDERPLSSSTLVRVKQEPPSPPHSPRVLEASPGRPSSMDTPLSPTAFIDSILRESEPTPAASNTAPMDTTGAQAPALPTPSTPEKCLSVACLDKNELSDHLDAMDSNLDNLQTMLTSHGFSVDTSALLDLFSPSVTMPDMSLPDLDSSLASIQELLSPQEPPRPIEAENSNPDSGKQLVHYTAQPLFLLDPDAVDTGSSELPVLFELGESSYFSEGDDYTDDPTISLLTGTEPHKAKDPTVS
# [34] = Late-stage results from the probe development effort to identify antagonists of arginine vasopressin receptor 1a (AVPR1a): fluorescence-based cell-based dose response AVPR1a inhibition assay.; assay type: functional
# Vasopressin V2 receptor = Vasopressin V2 receptor (Homo sapiens, UniProt P30518); experiment: Late-stage results from the probe development effort to identify antagonists of arginine vasopressin receptor 1a (AVPR1a): fluorescence-based cell-based dose response AVPR2 inhibition counterscreen assay.; assay type: functional
# Chain of Vasopressin V2 receptor (P30518 whole entry): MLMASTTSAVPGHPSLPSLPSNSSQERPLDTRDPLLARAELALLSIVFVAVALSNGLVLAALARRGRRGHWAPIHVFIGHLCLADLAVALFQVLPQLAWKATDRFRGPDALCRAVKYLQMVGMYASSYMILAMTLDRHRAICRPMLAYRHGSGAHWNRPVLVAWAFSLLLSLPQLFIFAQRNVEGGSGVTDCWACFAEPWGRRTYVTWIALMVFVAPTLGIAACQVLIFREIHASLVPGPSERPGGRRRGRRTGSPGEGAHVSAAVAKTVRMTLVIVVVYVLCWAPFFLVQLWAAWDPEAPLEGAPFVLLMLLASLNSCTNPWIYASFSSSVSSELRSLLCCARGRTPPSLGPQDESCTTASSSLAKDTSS
# Vasopressin V1b receptor = Vasopressin V1b receptor (Homo sapiens, UniProt P47901); experiment: Late-stage results from the probe development effort to identify antagonists of arginine vasopressin receptor 1a (AVPR1a): fluorescence-based cell-based dose response AVPR1b inhibition counterscreen assay.; assay type: functional
# Chain of Vasopressin V1b receptor (P47901 whole entry): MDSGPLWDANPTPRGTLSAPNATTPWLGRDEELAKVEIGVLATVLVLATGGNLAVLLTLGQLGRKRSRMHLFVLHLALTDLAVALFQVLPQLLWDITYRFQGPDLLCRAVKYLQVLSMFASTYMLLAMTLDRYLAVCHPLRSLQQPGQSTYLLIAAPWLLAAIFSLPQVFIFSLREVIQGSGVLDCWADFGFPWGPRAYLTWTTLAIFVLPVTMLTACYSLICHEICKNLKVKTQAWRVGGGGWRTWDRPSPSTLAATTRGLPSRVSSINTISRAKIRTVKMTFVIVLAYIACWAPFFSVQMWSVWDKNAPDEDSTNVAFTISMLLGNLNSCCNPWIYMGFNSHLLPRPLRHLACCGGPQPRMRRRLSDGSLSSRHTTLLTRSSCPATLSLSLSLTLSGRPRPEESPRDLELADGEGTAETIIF
# [35] = Late-stage results from the probe development effort to identify antagonists of arginine vasopressin receptor 1a (AVPR1a): fluorescence-based cell-based dose response OXTR inhibition counterscreen assay.; assay type: functional
# [36] = IC50 of Artemis nuclease activity blockers – biochemical, fluorescence intensity, dose response (AID 720701); assay type: functional;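 note: Artemis endonuclease enzyme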
# [37] = HIV-1 Vif–A3G interaction blockers – biochemical, TR-FRET, GST-Vif 1-94, biotin-A3G peptide, dose response retest, primary screen (AID 1117319); assay type: functional;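 note: TR-FRET signal of purified GST-Vif binding a biotinylated A3G peptide; inhibitors lower the FRET signal by blocking Vif and A3G binding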
# [38] = target: DNA damage-inducible transcript 3 protein (Mus musculus, UniProt P35639); assay type: functional, Cricetulus griseus
# Chain of DNA damage-inducible transcript 3 protein (P35639 whole entry): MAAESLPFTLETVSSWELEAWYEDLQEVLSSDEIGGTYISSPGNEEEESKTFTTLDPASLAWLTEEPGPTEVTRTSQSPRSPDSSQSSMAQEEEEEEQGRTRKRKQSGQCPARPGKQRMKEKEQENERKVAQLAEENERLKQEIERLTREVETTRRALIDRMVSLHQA
# [39] = target: E3 ubiquitin-protein ligase Mdm2 (Homo sapiens, UniProt Q00987); experiment: MDM2-luc reporter signal enhancers, multi-concentration potency testing, MDM2 ubiquitin-protein ligase inhibitor program, whole-cell format, luminescence detection, 384-well microplate (AID 1394); assay type: functional;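 note: MDM2 E3 inhibitors raise luminescence so EC50 is for signal enhancement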
# Chain of E3 ubiquitin-protein ligase Mdm2 (Q00987 whole entry): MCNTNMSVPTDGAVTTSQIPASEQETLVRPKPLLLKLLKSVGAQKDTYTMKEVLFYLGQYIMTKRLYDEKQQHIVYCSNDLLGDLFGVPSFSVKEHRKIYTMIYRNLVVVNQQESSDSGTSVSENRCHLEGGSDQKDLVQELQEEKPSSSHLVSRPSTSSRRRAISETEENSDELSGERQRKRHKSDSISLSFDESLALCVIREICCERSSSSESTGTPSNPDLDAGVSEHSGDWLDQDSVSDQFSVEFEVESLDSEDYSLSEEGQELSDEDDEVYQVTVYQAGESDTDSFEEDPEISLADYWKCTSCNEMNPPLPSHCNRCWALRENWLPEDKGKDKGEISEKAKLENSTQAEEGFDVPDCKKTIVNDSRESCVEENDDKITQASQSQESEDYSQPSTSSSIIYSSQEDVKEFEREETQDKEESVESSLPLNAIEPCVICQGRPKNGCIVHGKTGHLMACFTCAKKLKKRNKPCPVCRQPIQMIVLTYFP
smiles,measurement,setting,value
Cc1cccc(Nc2cc(Cl)nc(SCC(=O)O)n2)c1C [PIRINIXIC ACID],IC50,[1],> 20 µM (inactive)
same,IC50,[2],> 20 µM (inactive)
same,IC50,[3],> 20 µM (inactive)
same,IC50,[4],> 20 µM (inactive)
same,IC50,[5],> 20 µM (inactive)
same,IC50,[6],> 20 µM (inactive)
same,IC50,[7],> 20 µM (inactive)
same,IC50,[8],> 20 µM (inactive)
N#Cc1ccc(-c2ccc3c(c2)[C@H]2[C@H](CCN2C(=O)C2CCCCC2)[C@@H](CO)N3)cc1,AC50,[9],48.7 µM (active)
CCOC(=O)C1=C(COC(=O)/C=C/c2ccco2)NC(=O)NC1C (stereo unspecified),IC50,[10],4.25 µM (active)
same,IC50,[11],28.4 µM (active)
same,IC50,Protein Tat,> 100 µM (active)
same,IC50,[12],15.9 µM (active)
Cc1nnc2n1-c1sc(CCc3ccc(CC(C)C)cc3)cc1C(c1ccccc1Cl)=NC2C (stereo unspecified) [ISRAPAFANT],IC50,[13],> 40 µM (inactive)
same,IC50,[14],24.7 µM (inactive)
COc1ccc(CCN(C)CCCN2CC(c3ccccc3)CC2=O)cc1OC (stereo unspecified),IC50,[15],> 83.3 µM (inactive)
same,IC50,[16],> 109 µM (inactive)
Cc1cc(Cl)c(S(=O)(=O)NCC2CCCO2)cc1OCC(=O)NC1CCCCC1 (stereo unspecified),CC50,[17],> 40 µM (active)
COc1ccc(C#Cc2ccc([C@@H]3[C@H](CO)N4CCCCN(C(=O)Nc5ccccc5F)C[C@@H]34)cc2)cc1,AC50,[18],1.42 µM (active)
same,AC50,[19],0.771 µM (active)
same,AC50,[20],0.898 µM (active)
same,AC50,[21],8.16 µM (active)
same,AC50,[22],9.73 µM (active)
same,AC50,[23],1.02 µM (active)
O=C(CC=NOCc1ccc([N+](=O)[O-])cc1)Nc1ccc(Cl)cc1,IC50,[24],> 83.3 µM (inactive)
COc1cccc(/C=N/NC(N)=S)c1OCc1ccccc1Cl,CC50,[25],> 40 µM (active)
same,EC50,[26],> 30 µM (not active)
same,EC50,[27],1.18 µM (active)
C[C@@H]1CN(CCCn2c3ccccc3c3ccccc32)C[C@H](C)N1 [RIMCAZOLE HYDROCHLORIDE],IC50,[1],9.8 µM (inactive)
same,IC50,[2],6.02 µM (inactive)
same,IC50,[3],4.02 µM (active)
same,IC50,[4],15.9 µM (inactive)
same,IC50,[13],> 40 µM (inactive)
same,IC50,[5],2.18 µM (active)
same,IC50,[6],2.35 µM (active)
same,IC50,[7],10.5 µM (inactive)
same,IC50,[8],3.85 µM (active)
same,IC50,[14],6.37 µM (inactive)
C[C@@H](O)C#Cc1ccc2c(c1)O[C@@H](CN(C)Cc1ccccc1)[C@@H](C)CN([C@@H](C)CO)S2(=O)=O,AC50,[9],> 60 µM (inactive)
COc1ccc(C#Cc2ccc([C@@H]3[C@@H](CO)N4CCCCN(C(=O)Nc5cccc(F)c5)C[C@H]34)cc2)cc1,AC50,[18],1.66 µM (active)
same,AC50,[19],0.698 µM (active)
same,AC50,[28],1.35 µM (active)
same,AC50,[20],0.083 µM (active)
same,AC50,[21],7.51 µM (active)
same,AC50,[23],0.738 µM (active)
O=C(NCC[C@H]1CC[C@H](NC(=O)c2ccccc2F)[C@@H](CO)O1)c1cnccn1,AC50,[28],11 µM (active)
COc1ccc(C(=O)Nc2ccccc2C(=O)N/N=C/c2ccc(O)c(OC)c2)cc1,IC50,[29],> 39.8 µM (not active)
same,EC50,[30],0.149 µM (active)
same,IC50,[31],> 9.49 µM (active)
same,EC50,[32],0.156 µM (active)
same,EC50,[33],< 0.16 µM (active)
O=C(N1CCC2(CC1)OCc1ccccc12)N(CC1CC1)c1ccccc1,IC50,[34],0.466 µM (active)
same,IC50,Vasopressin V2 receptor,20 µM (inactive)
same,IC50,Vasopressin V1b receptor,25.1 µM (inactive)
same,IC50,[35],20 µM (inactive)
O=C(NC(C(=O)N/N=C/c1c2ccccc2cc2ccccc12)c1nnc(O)c2ccccc12)c1ccccc1 (stereo unspecified),IC50,[36],> 20 µM (inactive)
Cc1cccc(N2CCC(C(=O)N(CC3CC3)c3ccc(Cl)cc3)CC2)n1,IC50,[34],0.0248 µM (active)
same,IC50,Vasopressin V2 receptor,6.1 µM (active)
same,IC50,Vasopressin V1b receptor,17.6 µM (inactive)
same,IC50,[35],5.1 µM (active)
Cc1nc2nc(C)c(CCC(=O)NC3CCCCC3)c(C)n2n1,IC50,[15],> 83.4 µM (inactive)
same,IC50,[16],> 109 µM (inactive)
Oc1ccc(Cl)cc1-c1cc(-c2ccccc2)[nH]n1,IC50,[37],> 100 µM (active)
same,Absolute IC50 (CHOP),[38],10 µM
same,CC50,[17],> 40 µM (active)
CC1=C(C(=O)NC(C)CCc2ccccc2)C2(CCC(C)CC2)OC1=O (stereo unspecified),EC50,[39],78.3 µM (not active)
